The source of these data is US7247634B2, “Rifamycin derivatives effective against drug-resistant microbes” (Cumbre Pharmaceuticals Inc., priority 2004, dated 2007).

Molecules are shown by their SMILES. Converted amounts (≈) assume the structure as drawn.

What all share (assay type): cell-based
For assay [1], the system named is Mycobacterium smegmatis ATCC700084. Nature of the assay: MIC, microbroth dilution (NCCLS). Particulars: Mycolicibacterium smegmatis, rifS strain, Middlebrook Broth plus ADC Enrichment, 37° C., read-out: Antimicrobial activity (MIC). (In general: In broth dilution the organism is exposed to a series of concentrations in liquid medium.)
Assay [2] deals with Staphylococcus aureus EN1252a gyrA^S84L grlA^S80F. Description: microbe, parasite or virus in culture. The following applies: read-out: Antimicrobial activity (MIC). The method in brief:
(§1)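 Tested organisms were S. aureus ATCC 29213 rpoB mutants (D417Y, H418Y; rifampin-resistant) and double gyrase/topoisomerase IV mutant EN1252a (quinolone-resistant). Growth in cation-adjusted Mueller-Hinton broth at 37 °C; MIC by microbroth dilution per NCCLS guidelines.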

For assay [3], the system named is Staphylococcus aureus ATCC29213 rpoB^D417Y. Description: microbe, parasite or virus in culture. Particulars: ATCC29213, read-out: Antimicrobial activity (MIC). The method, boiled down: as §1
Assay [4] deals with Staphylococcus aureus ATCC29213 rpoB^H418Y. Nature of the assay: microbe, parasite or virus in culture. Particulars: ATCC29213, read-out: Antimicrobial activity (MIC). The method in brief: as §1
Assay [5] has as its system Staphylococcus aureus ATCC29213. Description: MIC, microbroth dilution (NCCLS). The following applies: rifS strain, Cation-Adjusted Mueller-Hinton Broth, 37° C., read-out: Antimicrobial activity (MIC).
For assay [6], the system named is Staphylococcus epidermidis ATCC12228. Description: MIC, microbroth dilution (NCCLS). Particulars: rifS strain, Cation-Adjusted Mueller-Hinton Broth, 37° C., read-out: Antimicrobial activity (MIC).
In assay [7] the test system is Escherichia coli ATCC25922. Nature of the assay: MIC, microbroth dilution (NCCLS). The following applies: rifS strain, Cation-Adjusted Mueller-Hinton Broth, 37° C., read-out: Antimicrobial activity (MIC).
Assay [8] relates to Haemophilus influenzae ATCC10211. Nature of the assay: MIC, microbroth dilution (NCCLS). The following applies: rifS strain, BHI Broth with NAD and hematin, 37° C., read-out: Antimicrobial activity (MIC).
For assay [9], the system named is Streptococcus pyogenes ATCC19615. Nature of the assay: MIC, microbroth dilution (NCCLS). Particulars: rifS strain, THY Broth, 37° C., read-out: Antimicrobial activity (MIC).
Assay [10] has as its system Enterococcus faecalis ATCC29212. Nature of the assay: MIC, microbroth dilution (NCCLS). Particulars: rifS strain, BHI Broth, 37° C., read-out: Antimicrobial activity (MIC).
The test system of assay [11] is Streptococcus pneumoniae ATCC6303. Nature of the assay: MIC, microbroth dilution (NCCLS). Particulars: rifS strain, THY Broth with 1 mg/mL catalase, 5% CO2, 37° C., read-out: Antimicrobial activity (MIC).

`CO[C@H]1/C=C/O[C@@]2(C)Oc3c(C)c(O)c4c(c3C2=O)C(=O)C(N2CCC(N3CCN(c5c(F)cc6c(=O)c(C(=O)O)cn(C7CC7)c6c5Cl)CC3)CC2)=C(NC(=O)/C(C)=C\C=C\[C@H](C)[C@H](O)[C@@H](C)[C@@H](O)[C@@H](C)[C@H](OC(C)=O)[C@@H]1C)C4=O` [Example 38, 3-{4-[1-(3-Carboxy-8-chloro-1-cyclopropyl-6-fluoro-4-oxo-1,4-dihydroquinolin-7-yl)-piperazin-4-yl]-piperidin-1-yl}rifamycin S]: the MIC in assay [1] was 0.5 to 64 µg/mL; in [2], 0.004 to 0.5 µg/mL (≈ 0.0035 to 0.438 µM); in assay [3] it was 0.06 to 32 µg/mL (≈ 0.0525 to 28 µM); in [4] it was 0.06 to 16 µg/mL (≈ 0.0525 to 14 µM); in assay [5] it was 0.004 to 0.5 µg/mL (≈ 0.0035 to 0.438 µM); in [6], 0.008 to 0.063 µg/mL (≈ 0.007 to 0.0551 µM). The MIC in assay [7] lay within 0.125 to 8 µg/mL (≈ 0.109 to 7 µM); in assay [8], 0.125 to 2 µg/mL (≈ 0.109 to 1.75 µM); in assay [9], 0.008 to 0.063 µg/mL (≈ 0.007 to 0.0551 µM); in assay [10], 2 to 32 µg/mL (≈ 1.75 to 28 µM); in assay [11], 0.008 to 0.125 µg/mL (≈ 0.007 to 0.109 µM).

For the molecule `COc1c(N2CCC(C(C)NC3CCN(C4=C5NC(=O)/C(C)=C\C=C\[C@H](C)[C@H](O)[C@@H](C)[C@@H](O)[C@@H](C)[C@H](OC(C)=O)[C@H](C)[C@@H](OC)/C=C/O[C@@]6(C)Oc7c(C)c(O)c(c(c7C6=O)C4=O)C5=O)CC3)C2)c(F)cc2c(=O)c(C(=O)O)cn(C3CC3)c12` (stereo partly shown) [Example 39, 3-{4-[1-(3-Carboxy-1-cyclopropyl-6-fluoro-8-methoxy-4-oxo-1,4-dihydroquinolin-7-yl)-pyrrolidin-3-ylethylamino]-piperidin-1-yl}rifamycin S], the MIC in [1] lay within 0.5 to 64 µg/mL; in [2], 0.004 to 0.5 µg/mL (≈ 0.00343 to 0.429 µM); in assay [3], 0.06 to 32 µg/mL (≈ 0.0514 to 27.4 µM); in assay [4], 0.06 to 16 µg/mL (≈ 0.0514 to 13.7 µM); in [5], 0.004 to 0.5 µg/mL (≈ 0.00343 to 0.429 µM); in [6], 0.008 to 0.063 µg/mL (≈ 0.00686 to 0.054 µM). Besides, the MIC in [7] was in the range of 0.125 to 8 µg/mL (≈ 0.107 to 6.86 µM); in assay [8], 0.125 to 2 µg/mL (≈ 0.107 to 1.71 µM); in [9], 0.008 to 0.063 µg/mL (≈ 0.00686 to 0.054 µM); in assay [10] it was 2 to 32 µg/mL (≈ 1.71 to 27.4 µM); in [11] it was 0.008 to 0.125 µg/mL (≈ 0.00686 to 0.107 µM).

Consider `COc1c(N2CCN(C(=O)C3CN(C4=C5NC(=O)/C(C)=C\C=C\[C@H](C)[C@H](O)[C@@H](C)[C@@H](O)[C@@H](C)[C@H](OC(C)=O)[C@H](C)[C@@H](OC)/C=C/O[C@@]6(C)Oc7c(C)c(O)c(c(c7C6=O)C4=O)C5=O)C3)CC2)c(F)cc2c(=O)c(C(=O)O)cn(C3CC3)c12` [Example 45, 3-{3-[4-(3-Carboxy-1-cyclopropyl-6-fluoro-8-methoxy-4-oxo-1,4-dihydroquinolin-7-yl)-piperazin-1-yl-carbonyl]-azetidin-1-yl}rifamycin S], for which the MIC in [1] was in the range of 0.5 to 64 µg/mL; in [2], 0.004 to 0.5 µg/mL (≈ 0.00351 to 0.439 µM); in [3] it was 0.06 to 32 µg/mL (≈ 0.0527 to 28.1 µM); in [4], 0.06 to 16 µg/mL (≈ 0.0527 to 14.1 µM); in assay [5] it was 0.004 to 0.5 µg/mL (≈ 0.00351 to 0.439 µM); in assay [6], 0.008 to 0.063 µg/mL (≈ 0.00703 to 0.0554 µM). Besides, the MIC lay in the range of 0.125 to 8 µg/mL (≈ 0.11 to 7.03 µM) in [7]; 0.125 to 2 µg/mL (≈ 0.11 to 1.76 µM) in [8]; 0.008 to 0.063 µg/mL (≈ 0.00703 to 0.0554 µM) in assay [9]; 2 to 32 µg/mL (≈ 1.76 to 28.1 µM) in [10]; 0.008 to 0.125 µg/mL (≈ 0.00703 to 0.11 µM) in [11].

Consider `COc1c(N2CC(NC(=O)C3CN(C4=C5NC(=O)/C(C)=C\C=C\[C@H](C)[C@H](O)[C@@H](C)[C@@H](O)[C@@H](C)[C@H](OC(C)=O)[C@H](C)[C@@H](OC)/C=C/O[C@@]6(C)Oc7c(C)c(O)c(c(c7C6=O)C4=O)C5=O)C3)C2)c(F)cc2c(=O)c(C(=O)O)cn(C3CC3)c12` [Example 47, 3-{3-[1-(3-Carboxy-1-cyclopropyl-6-fluoro-8-methoxy-4-oxo-1,4-dihydroquinolin-7-yl)-azetidin-3-ylcarbamoyl]-azetidin-1-yl}rifamycin S], for which the MIC was 0.5 to 64 µg/mL in assay [1]; 0.004 to 0.5 µg/mL (≈ 0.00356 to 0.445 µM) in [2]; 0.06 to 32 µg/mL (≈ 0.0534 to 28.5 µM) in assay [3]; 0.06 to 16 µg/mL (≈ 0.0534 to 14.2 µM) in assay [4]; 0.004 to 0.5 µg/mL (≈ 0.00356 to 0.445 µM) in assay [5]; 0.008 to 0.063 µg/mL (≈ 0.00712 to 0.056 µM) in [6]. Besides, the MIC in [7] was in the range of 0.125 to 8 µg/mL (≈ 0.111 to 7.12 µM); in assay [8] it was 0.125 to 2 µg/mL (≈ 0.111 to 1.78 µM); in assay [9], 0.008 to 0.063 µg/mL (≈ 0.00712 to 0.056 µM); in assay [10], 2 to 32 µg/mL (≈ 1.78 to 28.5 µM); in assay [11], 0.008 to 0.125 µg/mL (≈ 0.00712 to 0.111 µM).

Consider `CO[C@H]1/C=C/O[C@@]2(C)Oc3c(C)c(O)c4c(c3C2=O)C(=O)C(N2CC(C(=O)N3CCN(c5ccc(N6C[C@H](CNC(C)=O)OC6=O)cc5F)CC3)C2)=C(NC(=O)/C(C)=C\C=C\[C@H](C)[C@H](O)[C@@H](C)[C@@H](O)[C@@H](C)[C@H](OC(C)=O)[C@@H]1C)C4=O` [Example 48, 3-{3-(4-[1-(5-methyl-acetamidyl-2-oxo-oxazolidin-3-yl)-5-fluoro-phen-4-yl]-piperazin-1-ylcarbonyl)-azetidin-1-yl}-rifamycin S], for which the MIC in assay [1] was in the range of 0.5 to 64 µg/mL; in [2] it was 0.004 to 0.5 µg/mL (≈ 0.00359 to 0.449 µM); in assay [3] it was 0.06 to 32 µg/mL (≈ 0.0539 to 28.7 µM); in assay [4], 0.06 to 16 µg/mL (≈ 0.0539 to 14.4 µM); in assay [5], 0.004 to 0.5 µg/mL (≈ 0.00359 to 0.449 µM); in assay [6], 0.008 to 0.063 µg/mL (≈ 0.00719 to 0.0566 µM). Also, the MIC in [7] lay in the range of 0.125 to 8 µg/mL (≈ 0.112 to 7.19 µM); in assay [8], 0.125 to 2 µg/mL (≈ 0.112 to 1.8 µM); in [9] it was 0.008 to 0.063 µg/mL (≈ 0.00719 to 0.0566 µM); in assay [10], 2 to 32 µg/mL (≈ 1.8 to 28.7 µM); in [11], 0.008 to 0.125 µg/mL (≈ 0.00719 to 0.112 µM).
